Entries after “also recorded” stand apart in the source; their conditions may differ. Read-outs that look alike come from different tables or passages of the source.
Tests used:
HEK293 cells = experiment: MTT cytotoxicity assay on HEK293 cells; format: cell-based, human; conditions: for cytotoxic effects on healthy HEK293 cells (in words): 24 h, up to 100 μM; for IC50: Homo sapiens, HEK293, 24 h exposure, 12.5–100 μM
Protocol: The HEK293 was used for cell culture studies and obtained from the American Type Culture Collection (ATCC). Cells were cultured in RPMI-1640 cell medium supplemented with 10% fetal calf serum (FBS) and 1% penicillin/streptomycin. Cells were seeded 6 × 10^5/mL density into 96 well cell culture plates and incubated in a CO2 incubator at 37 °C. The cells were exposed to different chemical concentrations (100, 50, 25 and 12,5 μM) for 24 h after reaching a confluency of 80%.
The MTT assay was used to assess the cell viability. The MTT assay included putting the cells in an MTT solution (at 1 mg/mL concentration) and incubating them for 1 h at 37 °C. The absorbance was measured at a wavelength of 570 nm using an Epoch microplate spectrophotometer.

α-glucosidase [1] = experiment: α-glucosidase inhibitory activity (p-nitrophenyl-α-D-glucopyranoside method); format: biochemical
Protocol: After 20 min incubation at 37 °C, 90 μL Na2CO3 (100 mM) was added into the each well to stop the enzymatic reaction. Absorbance of the 96-well microplate reader was recorded at 400 nm. Antidiabetic inhibition activity data were taken in three parallel measurements for four concentrations of each synthesis sample. The results of the biological activity analyses are presented as IC50 values.

α-amylase = biological target: T1, α-amylase (Sus scrofa, UniProt P00690); experiment: α-amylase inhibitory activity (spectroscopic starch/Lugol method); format: biochemical
T1 sequence (P00690 16-511): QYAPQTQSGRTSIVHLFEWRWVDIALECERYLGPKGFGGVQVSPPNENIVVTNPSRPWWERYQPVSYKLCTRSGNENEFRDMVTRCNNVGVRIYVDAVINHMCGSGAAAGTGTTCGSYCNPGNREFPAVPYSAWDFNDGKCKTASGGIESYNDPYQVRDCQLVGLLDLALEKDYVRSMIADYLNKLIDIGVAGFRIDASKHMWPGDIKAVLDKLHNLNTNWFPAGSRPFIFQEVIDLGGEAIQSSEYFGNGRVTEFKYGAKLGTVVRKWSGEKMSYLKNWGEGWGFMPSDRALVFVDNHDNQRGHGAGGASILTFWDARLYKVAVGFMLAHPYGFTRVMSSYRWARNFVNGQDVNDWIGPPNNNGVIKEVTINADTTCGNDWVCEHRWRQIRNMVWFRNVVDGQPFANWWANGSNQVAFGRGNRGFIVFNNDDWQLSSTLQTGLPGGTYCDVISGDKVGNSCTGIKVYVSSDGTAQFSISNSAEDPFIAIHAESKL

α-glucosidase [2] = experiment: α-glucosidase inhibitory activity (p-nitrophenyl-α-D-glucopyranoside method); format: biochemical; remark: listed apart in the source
[3] = mean ± SEM of three parallel measurements, read-out: antidiabetic inhibition activity IC50, α-glucosidase
[4] = no unit in Table 5, same values as Table 2 (there μM), read-out: IC50 value (α-glucosidase), as repeated in docking Table 5

IC50 (α-glucosidase [1]; [3])	IC50 (α-glucosidase [1]; [4])	SMILES	cytotoxic effects on healthy HEK293 cells (in words) (HEK293 cells)	IC50 (HEK293 cells)	type of inhibition of α-amylase (enzyme kinetic study, Lineweaver–Burk) (α-amylase)	type of inhibition of α-glucosidase (enzyme kinetic study, Lineweaver–Burk) (α-glucosidase [2])
45.34 ± 0.36 µM	45.34 ± 0.36 µM	CC(=NNC(=O)c1ccc(F)cc1)c1ccc(S(=O)(=O)NC(=O)NC2CCCCC2)cc1 [compound 3, N-(Cyclohexylcarbamoyl)-4-(1-(2-(4-fluorobenzoyl)-hydrazinylidene)-ethyl)-benzenesulfonamide]	not causing any damage to healthy cells; also recorded: no negative impact on healthy cells	> 100 µM	–	–
84.97 ± 0.46 µM	84.97 ± 0.46 µM	CC(=NNC(=O)c1ccc(I)cc1)c1ccc(S(=O)(=O)NC(=O)NC2CCCCC2)cc1 [compound 4, N-(Cyclohexylcarbamoyl)-4-(1-(2-(4-iodobenzoyl)-hydrazinylidene)-ethyl)-benzenesulfonamide]	–	> 100 µM	–	–
77.36 ± 0.31 µM	77.36 ± 0.31 µM	CC(=NNC(=O)c1ccc(Br)cc1)c1ccc(S(=O)(=O)NC(=O)NC2CCCCC2)cc1 [compound 5, N-(Cyclohexylcarbamoyl)-4-(1-(2-(4-bromobenzoyl)-hydrazinylidene)-ethyl)-benzenesulfonamide]	–	> 100 µM	–	–
46.14 ± 0.33 µM	46.14 ± 0.33 µM	CC(=NNC(=O)c1ccc(C)cc1)c1ccc(S(=O)(=O)NC(=O)NC2CCCCC2)cc1 [compound 7, N-(Cyclohexylcarbamoyl)-4-(1-(2-(4-methylbenzoyl)-hydrazinylidene)-ethyl)-benzenesulfonamide]	–	61 µM	–	–
52.25 ± 0.44 µM	52.25 ± 0.44 µM	CC(=NNC(=O)c1ccc(Cl)cc1)c1ccc(S(=O)(=O)NC(=O)NC2CCCCC2)cc1 [compound 14, 4-(1-(2-(4-Chlorobenzoyl)-hydrazinylidene)-ethyl)-N-(cyclohexylcarbamoyl)-benzenesulfonamide]	–	–	–	–

More lines, now with the values behind:

SMILES	IC50 (α-glucosidase [1]; [3])	IC50 (α-glucosidase [1]; [4])	cytotoxic effects on healthy HEK293 cells (in words) (HEK293 cells)	IC50 (HEK293 cells)	type of inhibition of α-amylase (enzyme kinetic study, Lineweaver–Burk) (α-amylase)	type of inhibition of α-glucosidase (enzyme kinetic study, Lineweaver–Burk) (α-glucosidase [2])
C[C@H]1O[C@H](O[C@H]2[C@H](O)[C@@H](O)[C@@H](O[C@H]3[C@H](O)[C@@H](O)C(O)O[C@@H]3CO)O[C@@H]2CO)[C@H](O)[C@@H](O)[C@@H]1N[C@H]1C=C(CO)[C@@H](O)[C@H](O)[C@H]1O (some centres unmarked) [acarbose, reference compound]	–	–	nontoxic; also recorded: no cytotoxic effects	> 100 µM	–	–
C/C(=N\NC(=O)c1ccccc1)c1ccc(S(=O)(=O)NC(=O)NC2CCCCC2)cc1 [compound 1, 4-(1-(2-Benzoylhydrazinilidene)-ethyl)-N-(cyclohexylcarbamoyl)-benzenesulfonamide]	108 ± 0.69 µM	108 ± 0.69 µM	–	> 100 µM	–	–
CC(=NNC(=O)c1cccc(Cl)c1)c1ccc(S(=O)(=O)NC(=O)NC2CCCCC2)cc1 [compound 2, 4-(1-(2-(3-Chlorobenzoyl)-hydrazinylidene)-ethyl)-N-(cyclohexylcarbamoyl)-benzenesulfonamide]	68.75 ± 0.37 µM	68.75 ± 0.37 µM	–	> 100 µM	–	–
COc1ccc(C(=O)N/N=C(\C)c2ccc(S(=O)(=O)NC(=O)NC3CCCCC3)cc2)cc1 [compound 8, N-(Cyclohexylcarbamoyl)-4-(1-(2-(4-methoxy)-hydrazinilidene)-ethyl)-benzenesulfonamide]	38.1 ± 0.8 µM	38.1 ± 0.8 µM	not causing any damage to healthy cells; also recorded: no negative impact on healthy cells	–	uncompetitive	uncompetitive
CC(=NNC(=O)c1cccc([N+](=O)[O-])c1)c1ccc(S(=O)(=O)NC(=O)NC2CCCCC2)cc1 [compound 9, N-(Cyclohexylcarbamoyl)-4-(1-(2-(3-nitrobenzoyl)-hydrazinylidene)-ethyl)-benzenesulfonamide]	61.2 ± 0.69 µM	61.2 ± 0.69 µM	–	69.2 µM	–	–
CC(=NNC(=O)c1ccc([N+](=O)[O-])cc1)c1ccc(S(=O)(=O)NC(=O)NC2CCCCC2)cc1 [compound 10, N-(Cyclohexylcarbamoyl)-4-(1-(2-(4-nitrobenzoyl)-hydrazinylidene)-ethyl)-benzenesulfonamide]	40.44 ± 0.23 µM	40.44 ± 0.23 µM	not causing any damage to healthy cells; also recorded: no negative impact on healthy cells	> 100 µM	–	–
C/C(=N\NC(=O)c1cccc2ccccc12)c1ccc(S(=O)(=O)NC(=O)NC2CCCCC2)cc1 [compound 11, 4-(1-(2-(1-Naphthalene)-hydrazinylidene)-ethyl)-N-(cyclocarbamoyl)-benzenesulfonamide]	57.1 ± 0.78 µM	57.1 ± 0.78 µM	–	> 100 µM	–	–
CC(=NNC(=O)c1ccccc1[N+](=O)[O-])c1ccc(S(=O)(=O)NC(=O)NC2CCCCC2)cc1 [compound 13, N-(Cyclohexylcarbamoyl)-4-(1-(2-(2-nitrobenzoyl)-hydrazinylidene)-ethyl)-benzenesulfonamide]	66.38 ± 0.37 µM	66.38 ± 0.37 µM	–	> 100 µM	–	–

From publication PMC12489694, “Design, Synthesis, Antidiabetic Activity and In Silico Studies of New Hydrazone Derivatives Derived from Acetohexamide” (ACS Omega, 2025)
